Measured values taken from patent publication US20030176381A1, “Hyaluronic acid in the treatment of cancer” (priority 2002, published 2003).

Columns and labels:
Type in all cases: cell-based
[1] = system: MCF-7 human breast cancer cells; assay: MTT cell proliferation, MCF-7
Experimental: (§1) Cell proliferation was measured using dimethylthiazoldiphenyltetrazolium (MTT) reduction (Mosman et al. J. Immunol. Methods 65:55, 1983). Unless otherwise stated, 100 Al of 5 mg of MTT (Sigma-Aldrich, St. Louis, Mo., USA) dissolved in 1 ml of PBS was added into each well. After 4 h, medium was removed from each well, 1.0 ml of acid-isopropanol (0.04 N HCI in isopropanol) was added and reduced MTT was solubilized by mixing. Absorbency of the reaction product was measured at a wavelength of 570 nm using a multiplate spectrophotometer reader (Elx800 Model, Bio-TEK Instruments Inc., Winooski, Vt., USA).
(§2) Unless stated otherwise 1.0 x 10^5 cells/ml were seeded in 6-well flat-bottom tissue culture plates and were maintained for 48 h at 370 C in a 5% CO2 atmosphere.
(§3) PC-3, LNCAP and Du-145 human prostate cancer cells; MCF-7 human breast cancer cells; HT-1080 human fibrosarcoma cancer cells; B16F1 murine melanoma cells; and, UMUC-3, RT-4, HT-1376 and T-24 human bladder cancer cells were incubated with 0.8, 8.0 and 80 μg/ml of 5.0-7.5 x 10^5 Da HA (Table 2).
(§4) Unless stated otherwise 2.0 x 10^4 cells/ml were seeded in 24-well plates and were maintained for 48 h at 370 C in a 5% CO2 atmosphere. MTT was used at 50 μl per well.
(§5) T-24 human bladder cancer cells, PC-3 and Du-145 human prostate cancer cells, and MCF-7 human breast cancer cell were incubated with saline or with 80.0 jg/ml of 5.0-7.5 x 105 Da HA +1.0 μg/ml of M-DNA (Table 4).
MTT was used at 50 µl per well.
Example 8 s HA potentiation of the anti-neoplastic effect ofchemotherapeutic drugs RT-4 human bladder cancer cells and MCF-7 human breast cancer cells were incubated as in Example 6 with 0.0, 0.008 or 0.08 pg/ml of 5.0-7.5 x 10^5 Da HA +0.1 jg/ml of CIS, +1.0 jg/ml of 5-FU or +10 jig/ml of 5-FU (Table 7).
(§6) CD44 expression and the inhibition of proliferation by 5.0-7.5 x 10^5 Da HA were measured using Jurkat T cell leukemia cells; MCF-7 human breast cancer cells; RT-4, T-24, HT-1376 and UMUC-3 human bladder cancer cells; and, PC-3, Du-145 and LNCaP prostate cancer cells (Table 8)

[2] = system: HT-1376 human bladder cancer cells; assay: MTT cell proliferation, HT-1376
Experimental: as §1, §2, §3, §4
(§7) HT-1376, RT-4 and T-24 human bladder cancer cells were incubated with 0.8 pg/ml of 5.0-7.5 x 10^5 Da HA +1.0 ug/ml of MCC (Table 5).
as §6

[3] = system: Jurkat T cell leukemia cells; assay: MTT cell proliferation, Jurkat T; conditions: HA 80 μg/ml
Experimental: as §1, §2, §6

[4] = system: Du-145 human prostate cancer cells; assay: MTT cell proliferation, Du-145
Experimental: as §1, §2, §3
(§8) PC-3. LNCaP and Du-145 human prostate cancer cells were incubated with 8.0 jg/ml of 5.0-7.5 x 105 Da HA or of <1.5 x 10^4 Da HA (Table 3).
as §4, §5, §6

[5] = system: LNCaP human prostate cancer cells; assay: MTT cell proliferation, LNCaP; conditions: 48 h
Experimental: as §1, §2, §3, §8, §6

[6] = system: PC-3 human prostate cancer cells; assay: MTT cell proliferation, PC-3
Experimental: as §1, §2, §3, §8, §4, §5, §6

[7] = system: T-24 human bladder cancer cells; assay: MTT cell proliferation, T-24
Experimental: as §1, §2, §3, §4, §5, §7, §6

[8] = system: HT-1080 human fibrosarcoma cancer cells; assay: MTT cell proliferation, HT-1080; conditions: 48 h
Experimental: as §1, §2, §3

[9] = system: UMUC-3 human bladder cancer cells; assay: MTT cell proliferation, UMUC-3; conditions: 48 h
Experimental: as §1, §2, §3, §6

[10] = system: B16F1 murine melanoma cells; assay: MTT cell proliferation, B16F1; conditions: 48 h
Experimental: as §1, §2, §3

[11] = system: RT-4 human bladder cancer cells; assay: MTT cell proliferation, RT-4
Experimental: Cell proliferation was measured using dimethylthiazoldiphenyltetrazolium (MTT) reduction (Mosman et al. J. Immunol. Methods 65:55, 1983). Unless otherwise stated, 100 Al of 5 mg of MTT (Sigma-Aldrich, St. Louis, Mo., USA) dissolved in 1 ml of PBS was added into each well. After 4 h, medium was removed from each well, 1.0 ml of acid-isopropanol (0.04 N HCI in isopropanol) was added and reduced MTT was solubilized by mixing. Absorbency of the reaction product was measured at a wavelength of 570 nm using a multiplate spectrophotometer reader (Elx800 Model, Bio-TEK Instruments Inc., Winooski, Vt., USA). […] PC-3, LNCAP and Du-145 human prostate cancer cells; MCF-7 human breast cancer cells; HT-1080 human fibrosarcoma cancer cells; B16F1 murine melanoma cells; and, UMUC-3, RT-4, HT-1376 and T-24 human bladder cancer cells were incubated with 0.8, 8.0 and 80 μg/ml of 5.0-7.5 x 10^5 Da HA (Table 2). […] MTT was used at 50 μl per well. HT-1376, RT-4 and T-24 human bladder cancer cells were incubated with 0.8 pg/ml of 5.0-7.5 x 10^5 Da HA +1.0 ug/ml of MCC (Table 5). […] MCF-7 human breast cancer cells; RT-4, T-24, HT-1376 and UMUC-3 human bladder cancer cells; and, PC-3, Du-145 and LNCaP prostate cancer cells (Table 8)

[12] = HA 0.008 μg/ml alone (+ saline)
[13] = HA 80.0 μg/ml alone (+ saline), 24-well, Example 6
[14] = HA at 0.8 μg/ml alone (+ saline), 24-well, Example 6
[15] = HA 8.0 μg/ml, 48 h, listed as 0.5-7.5 × 10^5 Da HA

For Hyaluronic acid [5.0-7.5 × 10^5 Da HA], which “% INHIBITION of cell proliferation” value [1, 12] is on record?
The value was 12%.

What about the “% INHIBITION of cell proliferation” value ([1]; HA 0.08 μg/ml alone (+ saline)) of the same substance?
Its value is 12%.

What about the “% INHIBITION of cell proliferation” value ([1]; HA 0.8 μg/ml, 48 h) of the same substance?
Its value is 19%.

What about the “% INHIBITION of cell proliferation” value ([1]; HA 8.0 μg/ml, 48 h) of the same substance?
Its value is 24%.

What about the “% INHIBITION of cell proliferation” value [1, 13] of the same substance?
Its value is 35%.

What about the “% INHIBITION of cell proliferation” value ([1]; HA 80.0 μg/ml, 48 h) of the same substance?
The value was 35%.

And the “% INHIBITION of cell proliferation” value ([2]; HA 0.8 μg/ml, 48 h)?
The value was 0%.

And the “% INHIBITION of cell proliferation” value ([2]; HA 8.0 μg/ml, 48 h)?
Its value is 3%.

And the “% INHIBITION of cell proliferation” value ([2]; HA 80.0 μg/ml, 48 h)?
The value was 1%.

And the “% INHIBITION of cell proliferation” value [2, 14]?
The value was 3%.

What about the “% inhibition of proliferation” value [3] of the same substance?
Its value is 0%.

And the “% INHIBITION of cell proliferation” value ([4]; HA 0.8 μg/ml, 48 h)?
The value was 6%.

What about the “% INHIBITION of cell proliferation” value [4, 15] of the same substance?
Its value is 15%.

And the “% INHIBITION of cell proliferation” value [4, 13]?
The value was 38%.

And the “% INHIBITION of cell proliferation” value ([4]; HA 80.0 μg/ml, 48 h)?
The value was 38%.

What about the “% INHIBITION of cell proliferation” value ([5]; HA 0.8 μg/ml) of the same substance?
Its value is 7%.

What about the “% INHIBITION of cell proliferation” value ([5]; HA 8.0 μg/ml, listed as 0.5-7.5 × 10^5 Da HA) of the same substance?
The value was 13%.

What about the “% INHIBITION of cell proliferation” value ([6]; HA 0.8 μg/ml, 48 h) of the same substance?
Its value is 15%.

What about the “% INHIBITION of cell proliferation” value [6, 15] of the same substance?
The value was 26%.

What about the “% INHIBITION of cell proliferation” value [6, 13] of the same substance?
Its value is 30%.

What about the “% INHIBITION of cell proliferation” value ([7]; HA 0.8 μg/ml, 48 h) of the same substance?
Its value is 10%.

And the “% INHIBITION of cell proliferation” value ([7]; HA 8.0 μg/ml, 48 h)?
Its value is 8%.

What about the “% INHIBITION of cell proliferation” value [7, 13] of the same substance?
Its value is 0%.

What about the “% INHIBITION of cell proliferation” value ([7]; HA 80.0 μg/ml, 48 h) of the same substance?
Its value is 0%.

And the “% INHIBITION of cell proliferation” value [7, 14]?
Its value is 8%.

What about the “% INHIBITION of cell proliferation” value ([8]; HA 0.8 μg/ml) of the same substance?
The value was 4%.

And the “% INHIBITION of cell proliferation” value ([8]; HA 8.0 μg/ml)?
Its value is 4%.

What about the “% INHIBITION of cell proliferation” value ([8]; HA 80.0 μg/ml) of the same substance?
Its value is 36%.

What about the “% INHIBITION of cell proliferation” value ([9]; HA 0.8 μg/ml) of the same substance?
Its value is 10%.

What about the “% INHIBITION of cell proliferation” value ([9]; HA 8.0 μg/ml) of the same substance?
The value was 10%.

And the “% INHIBITION of cell proliferation” value ([9]; HA 80.0 μg/ml)?
The value was 2%.

What about the “% INHIBITION of cell proliferation” value ([10]; HA 0.8 μg/ml) of the same substance?
The value was 20%.

What about the “% INHIBITION of cell proliferation” value ([10]; HA 8.0 μg/ml) of the same substance?
Its value is 20%.

And the “% INHIBITION of cell proliferation” value ([10]; HA 80.0 μg/ml)?
Its value is 30%.

And the “% INHIBITION of cell proliferation” value [11, 12]?
Its value is 0%.

And the “% INHIBITION of cell proliferation” value ([11]; HA 0.08 μg/ml alone (+ saline))?
Its value is 0%.

What about the “% INHIBITION of cell proliferation” value ([11]; HA 0.8 μg/ml, 48 h) of the same substance?
The value was 12%.

And the “% INHIBITION of cell proliferation” value ([11]; HA 8.0 μg/ml, 48 h)?
The value was 13%.

And the “% INHIBITION of cell proliferation” value ([11]; HA 80.0 μg/ml, 48 h)?
Its value is 5%.

What about the “% INHIBITION of cell proliferation” value [11, 14] of the same substance?
Its value is 13%.
